In paper PMC3335822 (PLoS ONE, 2012):

Legend:
[1] = parameters: method as in PMID 20214587; conditions: cited from earlier work
HUVECs [2] = assay: HUVEC tubulogenesis assay on Matrigel; type: cell-based, human; conditions: for effect on tubulogenesis, in words: up to 7.5 μM
Procedure: Tubulogenesis assays were performed in 15-well micro-slide (ibidi LLC, Verona WI), using growth factor-reduced matrigel (BD Bioscience, Billerica, MA). The matrix was prepared by loading 10 μl of matrigel in each micro-slide well and allowing it to solidify for 30 minutes at 37°C. HUVECs were trypsinized and resuspended at 100,000 cell/ml in EBM +2.5% FBS. 50 μl (5,000 cell) were loaded on top of the solidified matrigel and the preparation was incubated for 20 hours at 37°C in a humidified incubator in a 5% CO2 atmosphere. Bright field images were taken using an inverted microscope at 2.5× magnification, which allowed imaging of the whole well in two pictures that were later merged in Photoshop. Tubular structures were traced and counted using NeuroJ (NIH, USA). In experiments with inhibitor, the inhibitor was added to the cell suspension before loading. Each sample was loaded in triplicate, and each treatment was repeated for reproducibility.

zebrafish embryos = assay: Analysis of zebrafish vasculature, Tg(kdrl:EGFP) embryos; type: in vivo; conditions: exposure from about 5 hpf, analysis at 28–30 hpf
Procedure: Tg(kdrl:EGFP)^s843 zebrafish line was used for vascular analysis. Embryos were maintained in fish water until the 50% epiboly stage (5.25 hpf) and were transferred into wells of 24-well plate containing the inhibitors in fish water. All incubation was performed at 28.5°C. The analysis for vascular defects was performed at the 28–30 hpf stages, and embryos were imaged using a fluorescence microscope.

mouse aortic rings = assay: Mouse aortic ring assay (ex vivo sprouting angiogenesis, VEGF-stimulated); conditions: 5 μM, 10 days
Procedure: The preparation of rat collagen and the aortic ring assay were carried out as previously described, [50]. Mice were 4 to 6 week old female C57BL/6, and aortic ring explants were cultured at 37°C in a humidified incubator under a 5% CO2 atmosphere.
Each inhibitor was serially diluted (between 0.25 mM and 7.5 mM) to stocks of 1000× the working concentrations in sterile 100% DMSO in order to achieve an equal final concentration of DMSO (0.1% v/v) in all culture conditions. For the experiments, the compounds were diluted in EBM containing 2.5% FBS, penicillin/streptomycin and 20 ng/ml VEGF165 (R&D Systems, Minneapolis, MN). Each compound was applied from the first day of culture over a 10-day period with medium change every two days. In all experiments, the vehicle (DMSO, 0.1%) was used as control. The sprouting density was derived from counting the number of branches per ring, and the extent of angiogenic sprouting was estimated by measuring the total surface area covered by the vessels.

MCF10A-EYA2 cells = assay: Transwell migration of MCF10A cells over-expressing EYA2; type: cell-based; conditions: for effect on migration of MCF10A(EYA2) cells: 7.5 μM
Procedure: (§1) Human umbilical vein endothelial cells (HUVECs) were purchased from Lonza (Walkersville, MD) and maintained in the endothelial cell growth medium (PromoCell, Heidelberg, Germany), under a 5% CO2 atmosphere. MCF10A cells from ATCC were stably transfected with either pcDNA 3.2/V5-DEST (vector control), V5-EYA2 or V5-EYA2(mut). Transwell migration experiments were performed as previously described.

[3] = cited from earlier work
Eya3(ED) = molecular target: T1, Eya3(ED) (Mus musculus, UniProt P97480); assay: pNPP hydrolysis by the catalytic domain of Eya3; type: biochemical
T1 construct: The catalytic domain (ED) of mouse Eyes Absent 3 (Eya3(223–510)) was purified; made in house
T1 sequence (P97480 223-510): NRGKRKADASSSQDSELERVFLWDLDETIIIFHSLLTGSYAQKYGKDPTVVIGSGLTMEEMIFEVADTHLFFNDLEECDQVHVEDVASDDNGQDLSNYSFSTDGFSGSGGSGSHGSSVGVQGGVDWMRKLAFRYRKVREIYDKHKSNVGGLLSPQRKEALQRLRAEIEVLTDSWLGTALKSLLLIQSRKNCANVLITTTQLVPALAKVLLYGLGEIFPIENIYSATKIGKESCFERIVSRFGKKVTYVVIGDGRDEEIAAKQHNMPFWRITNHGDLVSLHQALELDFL
Excerpt: The catalytic domain (ED) of mouse Eyes Absent 3 (Eya3(223–510)) was purified as described before. Human Eyes Absent 3 isoform 2 (representing the major species identified in human cell lines by mass spectrometry and residues 127–573 of NM_001990, isoform 1) was sub-cloned into pDEST565 to express a poly-histidine- Glutathione-S-transferase (His-GST) tagged fusion protein with a TVMV protease site. The protein was purified by glutathione-S-transferase affinity chromatography followed by TVMV cleavage, Ni-NTA chromatography, and finally size exclusion chromatography.
The NCI Diversity Set II was obtained from the NCI in 96-well trays from the NIH Molecular Libraries Program and stored as 10 mM stocks in DMSO. An initial manual screen was conducted using the previously described p-nitrophenylphosphate assay and mouse Eya3(223–510) in a reaction mixture containing 20 mM MES pH 6, 2 mM MgCl2, 125 μM inhibitor, 3.4 mM para-nitrophenol phosphate (pNPP) and 0.01 μg/µL enzyme.
(§2) Compounds were dissolved in DMSO and diluted as needed. […] Reactions were incubated at 30°C for 30 minutes and quenched with 100 mM EDTA pH 10. IC50 values were then calculated directly from regression curves using PRISM. All reported values are the mean of two independent experiments.

CYP2C9 = test system: CYP2C9; parameters: method as in PMID 20214587; conditions: cited from earlier work
PTP1B = molecular target: T2, PTP1B (Homo sapiens, UniProt P18031); assay: pNPP hydrolysis by PTP1B; type: biochemical; conditions: substrate pNPP
T2 construct: made in house
T2 sequence (P18031 1-435): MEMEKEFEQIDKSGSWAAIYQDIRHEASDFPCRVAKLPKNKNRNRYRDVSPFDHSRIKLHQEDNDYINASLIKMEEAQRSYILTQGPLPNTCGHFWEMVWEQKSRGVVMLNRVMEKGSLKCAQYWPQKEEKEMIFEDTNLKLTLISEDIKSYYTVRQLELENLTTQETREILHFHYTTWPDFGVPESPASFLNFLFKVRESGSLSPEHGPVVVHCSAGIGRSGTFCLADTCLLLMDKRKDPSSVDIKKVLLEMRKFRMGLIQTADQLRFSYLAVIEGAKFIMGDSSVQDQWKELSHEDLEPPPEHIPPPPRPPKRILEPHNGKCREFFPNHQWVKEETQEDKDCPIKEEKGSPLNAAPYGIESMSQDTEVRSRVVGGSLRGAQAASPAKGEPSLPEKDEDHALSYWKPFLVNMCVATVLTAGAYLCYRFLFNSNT
Procedure: The catalytic domain of human Eyes Absent 2 was similarly sub-cloned as a poly-histidine fusion construct in the vector pDEST-527. Fusion protein was purified by Ni-NTA chromatography and followed by size-exclusion chromatography over a Superdex-75 column. The relative purity of protein samples was determined using SDS-PAGE. PTP1B was purified as described previously.
as §2

HUVECs [4] = assay: HUVEC transwell migration; type: cell-based, human; conditions: 5 μM
Procedure: as §1

CCc1oc2ccccc2c1C(=O)c1cc(Br)c(O)c(Br)c1 [Compound 1, Benzbromarone]
hepatotoxicity [1]: reported hepatotoxicity | effect on tubulogenesis, in words (HUVECs [2]): effective only at the highest concentrations tested (7.5 μM) | effect on the developing vasculature (zebrafish embryos): significant reduction of intersegmental vessels even at the lowest dose tested (0.25 μM) | effect on sprouting of aortic rings (mouse aortic rings): shorter sprouts and significantly lower microvascular density | effect on migration of MCF10A(EYA2) cells (MCF10A-EYA2 cells): significantly inhibited cell migration | half-life [3]: about 3 hours | mode of inhibition of Eya3(ED) (Eya3(ED); pNPP substrate titration): uncompetitive inhibitor | inhibition of CYP2C9 (CYP2C9): inhibit CYP2C9 | IC50 (PTP1B): 53.8 µM | effect on HUVEC cell motility (HUVECs [4]): attenuated HUVEC cell motility

CCc1oc2ccccc2c1C(=O)c1ccc(O)cc1 [Compound 1a, Benzarone]
hepatotoxicity [1]: reported hepatotoxicity | reduction in tube formation (HUVECs [2]; 2.5 μM): ~50% | effect on tubulogenesis, in words (HUVECs [2]): potently inhibited tubulogenesis in a dose-dependent fashion | effect on the developing vasculature (zebrafish embryos): reduced the number of intersegmental vessels, but were less potent | effect on sprouting of aortic rings (mouse aortic rings): shorter sprouts and significantly lower microvascular density | reduction of cell motility (MCF10A-EYA2 cells; 1 μM (lowest concentration tested), MCF10A-EYA2): over 50% | effect on migration of MCF10A(EYA2) cells (MCF10A-EYA2 cells): significantly inhibited cell migration | half-life [3]: about 3 hours | IC50 (Eya3(ED); substrate pNPP 3.4 mM, pH 6, 30°C, 30 minutes): 19.2 µM | inhibition of CYP2C9 (CYP2C9): inhibit CYP2C9 | IC50 (PTP1B): > 150 µM | effect on HUVEC cell motility (HUVECs [4]): attenuated HUVEC cell motility
